Source: patent US20190119200A1, “TERTIARY AMIDES AND METHOD OF USE” (AbbVie Inc., priority 2016, published 2019)

Legend:
LPAR1 = target: T1, LPAR1 (Homo sapiens, UniProt Q92633); experiment: LPAR1 FLIPR Assay; type: cell-based; settings: U2OS cells stably expressing LPAR1, LPA (EC80), Calcium 6 FLIPR dye; for Emax: read-out: Maximum Inhibition
T1 construct: host or cells: U2OS
Method: U2OS cells stably expressing LPAR1 (Life Technologies #K1519A) were plated at 12000 cells/well in growth medium (McCoy's 5A medium(Life Technologies 16600-082)) with 10% dFBS (Life Technologies 26400-036), 0.1 mM non-essential amino acids, 25 mM HEPES, 1 mM sodium pyruvate, 1% penicillin/streptomycin, 50 μg/mL hygromycin, and 100 μg/mL Geneticin® in black-walled, clear-bottom 384-well plates (Corning #3683) and incubated in humidified 5% CO2 at 37° C. overnight. On the day of the assay, medium was removed and 30 μL of 5% Calcium 6 FLIPR dye in assay buffer-HBSS (Life Technologies #14025) containing 20 mM HEPES (Life Technologies #15630-080) was added to the cells. Cells were incubated at 37° C. in the dark for 2 hours. Compounds were 3-fold serial diluted from 10 mM for 11-points using dimethyl sulfoxide. 1 μL of compound in DMSO was diluted in 82.3 μL assay buffer immediately before the assay. Using a FLIPR® TETRA® system, 15 μL of the (4×) compound solutions were first added to the cells, then 15 μL of LPA (EC80) diluted in of assay buffer supplemented with 0.1% BSA was added 3 minutes later to activate the receptor. Changes in fluorescence were measured at wavelengths of 515-575 nm over the course of the experimental run. IC50 values were calculated from curve fits of the ratio data using a four-parameter logistic Hill equation (Assay Explorer 3.3 Client).

[1] = tested on: LPA-induced MCP-1 in NRK-49F cells; experiment: LPA-induced MCP-1 AlphaLISA assay; type: cell-based; settings: Rattus norvegicus, final LPA 10 μM, 7 hours; for Emax: read-out: Maximum Inhibition
Method: Two days prior to the experiment, NRK-49F cells were plated at 8,000 cells/well in 100 μL of growth medium [DMEM (Life Technologies #11995) with 5% dFBS (Life Technologies #30067-334), 100 units/mL penicillin/streptomycin (Life Technologies #15140122)] in 96-well clear flat bottom polystyrene TC-treated microplate (Corning® #3599) and incubated in humidified 10% CO2 at 37° C. One day prior to the experiment, the cell medium was removed and serum free medium [100 μL/well, DMEM (Life Technologies #11995) with 0.1% fatty acid free BSA (Sigma #A6003)] was added with continued incubation in humidified 10% CO2 at 37° C. overnight. On the day of the assay, test compounds were 1:3 serially diluted in 100% DMSO using a BioTek Precision™ system and then transferred (equivalent volume of DMSO as controls) to a plate in serum free medium [DMEM with 0.1% fatty acid free BSA] using a Biomek® NX workstation to give a 2× compound solution. The cell culture medium was removed, and cells were pre-treated with 50 μL/well of 2× compound in serum free medium [DMEM with 0.1% fatty acid free BSA] at 37° C. for 30 minutes. Following the incubation, 50 μL/well of 20 μM LPA diluted in serum free medium [DMEM with 0.1% fatty acid free BSA] was added to the cells. Serum free medium [DMEM with 0.1% fatty acid free BSA] was used as substitution for low control wells while 20 µM LPA was added to high control wells and test compound wells. 200 µM LPA was added to EC100 wells. Final DMSO concentration was 1% in every well. Final LPA concentration in test compound wells and high control wells was 10 μM. […] After the incubation, cell supernatant was transferred to a new 96 well polypropylene plate (Greiner #651201) where it was sealed and stored at −80° C. On the detection day, 5 μL of thawed cell supernatant was transferred to a new white opaque 384-well microplate (Perkin Elmer #6007299). An AlphaLISA® mouse/rat CCL2/MCP1, Immunoassay Research kit (PerkinElmer #AL509F) was used. A mixture (20 μL/well) of AlphaLISA® Anti-Analyte Accept beads (10 μg/mL final) and Biotinylated Antibody Anti-Analyte (freshly prepared, 1 nM final) was added. The mixture in the wells was mixed and then incubated at room temperature for 1 hour. Then SA-Donor beads (25 μL/well, 40 μg/mL final) were added giving a final volume of 50 μL/well. The contents of the wells were mixed and then incubated at room temperature for 0.5 hour (protect from light). The plate was read using the default Envision™ Alpha protocol (PerkinElmer). IC50 values were calculated from curve fits of the ratio data using a four-parameter logistic Hill equation (Assay Explorer 3.3 Client).

T1 sequence (Q92633 whole entry): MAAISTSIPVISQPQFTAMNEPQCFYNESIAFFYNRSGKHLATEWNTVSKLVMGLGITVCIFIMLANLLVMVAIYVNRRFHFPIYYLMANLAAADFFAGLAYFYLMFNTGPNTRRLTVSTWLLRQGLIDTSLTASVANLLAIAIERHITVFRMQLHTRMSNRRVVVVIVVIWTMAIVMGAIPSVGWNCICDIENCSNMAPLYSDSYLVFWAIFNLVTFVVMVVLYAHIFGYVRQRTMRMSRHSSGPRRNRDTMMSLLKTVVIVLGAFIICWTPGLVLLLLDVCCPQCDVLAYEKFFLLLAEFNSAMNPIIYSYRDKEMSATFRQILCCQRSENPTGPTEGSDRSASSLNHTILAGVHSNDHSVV

| Compound | IC50 (LPAR1) [nM] | Emax (LPAR1) [%] | IC50 [1] [nM] | Maximum Inhibition (LPAR1) [%] | Emax [1] [%] |
| --- | --- | --- | --- | --- | --- |
| COc1cc(C(=O)N(CCCCC(=O)O)CCCc2ccccc2)ccc1Cl [Example 17, 5-[(4-chloro-3-methoxybenzoyl)(3-phenylpropyl)amino]pentanoic Acid] | 3980 | 61 | > 1300 | – | 65 |
| CCOc1cc(OCC)cc(C(=O)N(CCCCC(=O)O)CCCc2ccccc2)c1 [Example 18, 5-[(3,5-diethoxybenzoyl)(3-phenylpropyl)amino]pentanoic Acid] | 50 | 89 | 1630 | – | 86 |
| COc1cc(OC)c([N+](=O)[O-])c(C(=O)N(CCCCC(=O)O)CCCc2ccccc2)c1 [Example 19, 5-[(3,5-dimethoxy-2-nitrobenzoyl)(3-phenylpropyl)amino]pentanoic Acid] | 71 | 98 | 783 | – | 84 |
| COc1cc(C(=O)N(CCCCC(=O)O)CCCc2ccccc2)ccc1[N+](=O)[O-] [Example 22, 5-[(3-methoxy-4-nitrobenzoyl)(3-phenylpropyl)amino]pentanoic Acid] | 54 | 89 | > 9350 | – | 42 |
| COc1cc(C(=O)N(CCCCC(=O)O)CCCc2ccccc2)cc2oc(C)cc12 [Example 31, 5-[(4-methoxy-2-methyl-1-benzofuran-6-carbonyl)(3-phenylpropyl)amino]pentanoic Acid] | 45 | 87 | 5320 | – | 68 |
| CCOC1CC1(C(=O)N(CCCCC(=O)O)CCCc1ccccc1)c1ccc(OC)cc1 (centres unmarked) [Example 149, 5-{[2-ethoxy-1-(4-methoxyphenyl)cyclopropane-1-carbonyl](3-phenylpropyl)amino}pentanoic Acid] | 838 | 72 | – | – | – |
| COc1cc(C(=O)N(CCCCC(=O)O)[C@H](C)CCc2ccccc2)cc(OC)c1C [Example 153, 5-{(3,5-dimethoxy-4-methylbenzoyl)[(2R)-4-phenylbutan-2-yl]amino}pentanoic Acid] | 127 | 83 | – | – | – |
| COc1cc(C(=O)N(CCCCC(=O)O)[C@@H](C)CCc2ccccc2)cc(OC)c1C [Example 154, 5-{(3,5-dimethoxy-4-methylbenzoyl) [(2S)-4-phenylbutan-2-yl]amino}pentanoic Acid] | 225 | 69 | – | – | – |
| COc1ccc(C2(C(=O)N(CCCCC(=O)O)CCCc3ccccc3)CC(OC)C2)cc1 (stereo not drawn) [Example 158, 5-{[cis-3-methoxy-1-(4-methoxyphenyl)cyclobutane-1-carbonyl](3-phenylpropyl)amino}pentanoic Acid] | 511 | – | – | 98 | – |
| COc1ccc(C2(C(=O)N(CCCCC(=O)O)CCCc3ccccc3)CC(OC)C2)cc1 (stereo not drawn) [Example 159, 5-{[trans-3-methoxy-1-(4-methoxyphenyl)cyclobutane-1-carbonyl](3-phenylpropyl)amino}pentanoic Acid] | 302 | – | – | 85 | – |
| Cc1nc2c(C(=O)N(CCCCC(=O)O)CCCc3ccccc3)cccc2c(=O)[nH]1 [Example 160, 5-[(2-methyl-4-oxo-3,4-dihydroquinazoline-8-carbonyl)(3-phenylpropyl)amino]pentanoic Acid] | 8020 | 63 | – | – | – |
| COc1cc(C(=O)N(CCCCC(=O)O)CCCc2ccccc2)nc(OC)n1 [Example 163, 5-[(2,6-dimethoxypyrimidine-4-carbonyl)(3-phenylpropyl)amino]pentanoic Acid] | 244 | 57 | – | – | – |
| O=C(O)CCCCN(CCCc1ccccc1)C(=O)C1CC(=O)Nc2ccc(F)cc21 (centres unmarked) [Example 168, 5-[(6-fluoro-2-oxo-1,2,3,4-tetrahydroquinoline-4-carbonyl)(3-phenylpropyl)amino]pentanoic Acid] | 1100 | 62 | – | – | – |
| Cn1cc(C(=O)N(CCCCC(=O)O)CCCc2ccccc2)c2ccccc2c1=O [Example 169, 5-[(2-methyl-1-oxo-1,2-dihydroisoquinoline-4-carbonyl)(3-phenylpropyl)amino]pentanoic Acid] | 3090 | 71 | – | – | – |
| Cc1cc(C(=O)N(CCCCC(=O)O)CCCc2ccccc2)c2c(C)noc2n1 [Example 172, 5-[(3,6-dimethyl[1,2]oxazolo[5,4-b]pyridine-4-carbonyl)(3-phenylpropyl)amino]pentanoic Acid] | 1460 | 63 | – | – | – |
| COc1cc(C(=O)N(CCCCC(=O)O)CCCc2ccc(C)o2)cc(OC)c1C(F)(F)F [Example 177, 5-{[3,5-dimethoxy-4-(trifluoromethyl)benzoyl][3-(5-methylfuran-2-yl)propyl]amino}pentanoic Acid] | 235 | 57 | – | – | – |

Continued, in another order:

| IC50 (LPAR1) [nM] | Emax (LPAR1) [%] | IC50 [1] [nM] | Maximum Inhibition (LPAR1) [%] | Compound | Emax [1] [%] |
| --- | --- | --- | --- | --- | --- |
| 79 | 88 | 4700 | – | COc1cc(C(=O)N(CCCc2ccccc2)CC(=O)N[C@@H](Cc2cccs2)C(=O)O)cc(OC)c1C [Example 47, N-(3,5-dimethoxy-4-methylbenzoyl)-N-(3-phenylpropyl)glycyl-3-thiophen-2-ylalanine] | 58 |
| 124 | 87 | 1010 | – | COc1cc(C(=O)N(CCCc2ccccc2)CCCC(Cc2ccccc2)C(=O)O)cc(OC)c1C (centres unmarked) [Example 52, 2-benzyl-5-[(3,5-dimethoxy-4-methylbenzoyl)(3-phenylpropyl)amino]pentanoic Acid] | 77 |
| > 30000 | 46 | 3720 | – | COc1cc(C(=O)N(CCCc2ccccc2)CCC(=O)O)cc(OC)c1C [Example 67, N-(3,5-dimethoxy-4-methylbenzoyl)-N-(3-phenylpropyl)-beta-alanine] | 57 |
| 21 | 99 | – | – | COc1cc(C(=O)N(CCCc2ccccc2)CCOC(C)(C)C(=O)NS(C)(=O)=O)cc(OC)c1C [Example 156, N-[2-({1-[(methanesulfonyl)amino]-2-methyl-1-oxopropan-2-yl}oxy)ethyl]-3,5-dimethoxy-4-methyl-N-(3-phenylpropyl)benzamide] | – |
| 237 | 76 | – | – | COc1cc(C(=O)N(CCCc2ccccc2)C(C)CCCC(=O)O)cc(OC)c1C (centres unmarked) [Example 164, 5-[(3,5-dimethoxy-4-methylbenzoyl)(3-phenylpropyl)amino]hexanoic Acid] | – |
| 486 | 80 | – | – | COc1cc(C(=O)N(CCCc2ccccc2)C[C@H]2CCC(=O)O2)cc(OC)c1C [Example 181, 3,5-dimethoxy-4-methyl-N-{[(2R)-5-oxooxolan-2-yl]methyl}-N-(3-phenylpropyl)benzamide] | – |
| > 10000 | 30 | – | – | COc1cc(C(=O)N(CCCc2ccccc2)CCOC(=O)NS(=O)(=O)c2ccc(F)cc2)cc(OC)c1C [Example 183, 2-[(3,5-dimethoxy-4-methylbenzoyl)(3-phenylpropyl)amino]ethyl (4-fluorobenzene-1-sulfonyl)carbamate] | – |
